Common to all, as to assay type: functional
The subject of assay [1] is UACC-257. As to the kind of experiment: Growth inhibition of human UACC257 cells assessed as cell growth at 1 uM incubated for 48 hrs by sulforhodamine B assay relative to control. To be noted: UACC-257, 48 h, read-out: Activity.
For another assay, the system named is CCRF-CEM. The assay can be described thus: Growth inhibition of human CCRF-CEM cells assessed as cell growth at 10 uM incubated for 48 hrs by sulforhodamine B assay relative to control. The settings on record: read-out: Activity.
In a further assay the test system is MOLT-4. As to the kind of experiment: Growth inhibition of human MOLT4 cells assessed as cell growth at 10 uM incubated for 48 hrs by sulforhodamine B assay relative to control. The settings on record: MOLT-4, 48 h, read-out: Activity.
For a further assay, the system named is UACC-62. As to the kind of experiment: Growth inhibition of human UACC62 cells assessed as cell growth at 100 uM incubated for 48 hrs by sulforhodamine B assay relative to control. To be noted: UACC-62, 48 h, read-out: Activity.
Assay [2] has as its system MDA-MB-231. The assay can be described thus: Growth inhibition of human MDA-MB-231 cells assessed as cell growth at 0.01 uM incubated for 48 hrs by sulforhodamine B assay relative to control. The settings on record: MDA-MB-231, 48 h, read-out: Activity.
The test system of another assay is M14. The assay can be described thus: Growth inhibition of human M14 cells assessed as cell growth at 0.01 uM incubated for 48 hrs by sulforhodamine B assay relative to control. To be noted: M14, 48 h, read-out: Activity.
The next assay has as its system OVCAR-3. The assay can be described thus: Growth inhibition of human OVCAR3 cells assessed as cell growth at 10 uM incubated for 48 hrs by sulforhodamine B assay relative to control. The settings on record: OVCAR-3, 48 h, read-out: Activity.
Assay [3] relates to UACC-257. As to the kind of experiment: Growth inhibition of human UACC257 cells assessed as cell growth at 100 uM incubated for 48 hrs by sulforhodamine B assay relative to control. The settings on record: UACC-257, 48 h, read-out: Activity.
A further assay has as its system SK-OV-3. The assay can be described thus: Growth inhibition of human SKOV3 cells assessed as cell growth at 100 uM incubated for 48 hrs by sulforhodamine B assay relative to control. The settings on record: SK-OV-3, 48 h, read-out: Activity.
The subject of another assay is RPMI-8226. The assay can be described thus: Growth inhibition of human RPMI8226 cells assessed as cell growth at 0.1 uM incubated for 48 hrs by sulforhodamine B assay relative to control. The settings on record: RPMI-8226, 48 h, read-out: Activity.
The next assay deals with SK-MEL-5. The assay can be described thus: Growth inhibition of human SK-MEL-5 cells assessed as cell growth at 100 uM incubated for 48 hrs by sulforhodamine B assay relative to control. The settings on record: SK-MEL-5, 48 h, read-out: Activity.
A further assay has as its system K562. As to the kind of experiment: Growth inhibition of human K562 cells assessed as cell growth at 1 uM incubated for 48 hrs by sulforhodamine B assay relative to control. The settings on record: K562, 48 h, read-out: Activity.
The subject of the next assay is RXF 393. The assay can be described thus: Growth inhibition of human RXF393 cells assessed as cell growth at 100 uM incubated for 48 hrs by sulforhodamine B assay relative to control. The settings on record: RXF 393, 48 h, read-out: Activity.
A further assay has as its system SF-295. The assay can be described thus: Growth inhibition of human SF295 cells assessed as cell growth at 0.01 uM incubated for 48 hrs by sulforhodamine B assay relative to control. The settings on record: SF-295, 48 h, read-out: Activity.
The next assay has as its system ACHN. As to the kind of experiment: Growth inhibition of human ACHN cells assessed as cell growth at 0.1 uM incubated for 48 hrs by sulforhodamine B assay relative to control. The settings on record: read-out: Activity.
A further assay relates to HCT-116. The assay can be described thus: Growth inhibition of human HCT116 cells assessed as cell growth at 0.1 uM incubated for 48 hrs by sulforhodamine B assay relative to control. To be noted: HCT-116, 48 h, read-out: Activity.
The subject of assay [4] is MDA-MB-231. As to the kind of experiment: Growth inhibition of human MDA-MB-231 cells assessed as cell growth at 1 uM incubated for 48 hrs by sulforhodamine B assay relative to control. The settings on record: MDA-MB-231, 48 h, read-out: Activity.
A further assay has as its system Malme-3M. As to the kind of experiment: Growth inhibition of human MALME-3M cells assessed as cell growth at 10 uM incubated for 48 hrs by sulforhodamine B assay relative to control. The settings on record: read-out: Activity.
The subject of assay [5] is IGROV-1. As to the kind of experiment: Growth inhibition of human IGROV1 cells assessed as cell growth at 0.3 uM incubated for 48 hrs by sulforhodamine B assay relative to control. The settings on record: IGROV-1, 48 h, read-out: Activity.
In a further assay the test system is 786-0. The assay can be described thus: Growth inhibition of human 786-0 cells assessed as cell growth at 3 uM incubated for 48 hrs by sulforhodamine B assay relative to control. To be noted: 786-0, 48 h, read-out: Activity.
The subject of a further assay is HCC 2998. As to the kind of experiment: Growth inhibition of human HCC2998 cells assessed as cell growth at 0.003 uM incubated for 48 hrs by sulforhodamine B assay relative to control. To be noted: HCC 2998, 48 h, read-out: Activity.
The next assay concerns KM12. As to the kind of experiment: Growth inhibition of human KM12 cells assessed as cell growth at 0.03 uM incubated for 48 hrs by sulforhodamine B assay relative to control. The settings on record: KM12, 48 h, read-out: Activity.
The test system of the next assay is SNB-19. As to the kind of experiment: Growth inhibition of human SNB19 cells assessed as cell growth at 0.03 uM incubated for 48 hrs by sulforhodamine B assay relative to control. To be noted: SNB-19, 48 h, read-out: Activity.
For another assay, the system named is HL-60(TB). As to the kind of experiment: Growth inhibition of human HL-60(TB) cells assessed as cell growth at 30 uM incubated for 48 hrs by sulforhodamine B assay relative to control. The settings on record: HL-60, 48 h, read-out: Activity.
Assay [6] concerns SR. As to the kind of experiment: Growth inhibition of human SR cells assessed as cell growth at 0.03 uM incubated for 48 hrs by sulforhodamine B assay relative to control. To be noted: read-out: Activity.
The subject of the next assay is MDA-MB-435. As to the kind of experiment: Growth inhibition of human MDA-MB-435 cells assessed as cell growth at 0.03 uM incubated for 48 hrs by sulforhodamine B assay relative to control. The settings on record: MDA-MB-435, 48 h, read-out: Activity.
The next assay deals with OVCAR-4. As to the kind of experiment: Growth inhibition of human OVCAR4 cells assessed as cell growth at 0.003 uM incubated for 48 hrs by sulforhodamine B assay relative to control. To be noted: OVCAR-4, 48 h, read-out: Activity.
Assay [7] concerns SR. The assay can be described thus: Growth inhibition of human SR cells assessed as cell growth at 3 uM incubated for 48 hrs by sulforhodamine B assay relative to control. To be noted: read-out: Activity.
The next assay has as its system SK-MEL-2. The assay can be described thus: Growth inhibition of human SK-MEL-2 cells assessed as cell growth at 0.03 uM incubated for 48 hrs by sulforhodamine B assay relative to control. The settings on record: SK-MEL-2, 48 h, read-out: Activity.
The test system of the next assay is HT-29. The assay can be described thus: Growth inhibition of human HT-29 cells assessed as cell growth at 0.03 uM incubated for 48 hrs by sulforhodamine B assay relative to control. The settings on record: HT-29, 48 h, read-out: Activity.
The subject of assay [8] is IGROV-1. The assay can be described thus: Growth inhibition of human IGROV1 cells assessed as cell growth at 3 uM incubated for 48 hrs by sulforhodamine B assay relative to control. To be noted: IGROV-1, 48 h, read-out: Activity.
The next assay concerns NCI-H322M. As to the kind of experiment: Growth inhibition of human NCI-H322M cells assessed as cell growth at 3 uM incubated for 48 hrs by sulforhodamine B assay relative to control. To be noted: read-out: Activity.
In assay [9] the test system is IGROV-1. As to the kind of experiment: Growth inhibition of human IGROV1 cells assessed as cell growth at 0.03 uM incubated for 48 hrs by sulforhodamine B assay relative to control. The settings on record: IGROV-1, 48 h, read-out: Activity.
Another assay deals with HCT-15. The assay can be described thus: Growth inhibition of human HCT15 cells assessed as cell growth at 30 uM incubated for 48 hrs by sulforhodamine B assay relative to control. To be noted: HCT-15, 48 h, read-out: Activity.

Data on 4 compounds can be found in ChEMBL document CHEMBL3994622, “Design and synthesis of new RAF kinase-inhibiting antiproliferative quinoline derivatives. Part 2: Diarylurea derivatives” (Eur J Med Chem, 2017).

As for `COc1cc2cc(Oc3ccc(NC(=O)Nc4ccc(Cl)c(Cl)c4)cc3)c(C)nc2cc1OC`, the growth at 1 µM in the assay on UACC-257 [1] came out at 92%; in the assay with K562 it was 88%; in the assay with MDA-MB-231 [4], 77%. Further, the growth at 10 µM with CCRF-CEM was 4%; in the assay with MOLT-4, 7%; with OVCAR-3, -25%; in the assay with Malme-3M it was -14%. Also, the growth at 100 µM in the assay on UACC-62 was -63%; in the assay on UACC-257 [3], -92%; with SK-OV-3, -57%; with SK-MEL-5, -93%; with RXF 393, -65%. Besides, the growth at 0.01 µM in the assay with MDA-MB-231 [2] came to 93%; in the assay with M14, 84%; in the assay with SF-295, 88%. For the same compound, the growth at 0.1 µM in the assay with RPMI-8226 turned out to be 101%; in the assay on ACHN, 105%; in the assay with HCT-116, 102%.
For `COc1cc2cc(Oc3ccc(NC(=O)Nc4ccc(Cl)c(C(F)(F)F)c4)cc3)c(C)nc2cc1OC`, the growth at 0.3 µM with IGROV-1 [5] worked out at 117%. For the same compound, the growth at 3 µM in the assay with 786-0 was 16%; in the assay on SR [7] it was -9%; with IGROV-1 [8], 39%; with NCI-H322M, 35%. The growth at 0.003 µM with HCC 2998 amounted to 102%; with OVCAR-4 it was 93%. The growth at 0.03 µM in the assay with KM12 was 93%; in the assay with SNB-19, 95%; with SR [6], 92%; with MDA-MB-435, 95%; with SK-MEL-2 it was 97%; in the assay with HT-29, 100%. In addition, the growth at 0.03 µM with IGROV-1 [9] was 107%. Further, the growth at 30 µM in the assay on HL-60(TB) was -22%; with HCT-15, -76%.
For `COc1cc2cc(Oc3ccc(NC(=O)Nc4cc(C(F)(F)F)cc(C(F)(F)F)c4)cc3)c(C)nc2cc1OC`, the growth at 1 µM in the assay on UACC-257 [1] was 107%; in the assay on K562, 32%; with MDA-MB-231 [4], 55%. The growth at 10 µM was -33% in the assay on CCRF-CEM, -36% with MOLT-4, -90% with OVCAR-3 and -46% in the assay on Malme-3M. Besides, the growth at 100 µM is -79% in the assay with UACC-62; -78% in the assay with UACC-257 [3]; -89% in the assay on SK-OV-3; -93% with SK-MEL-5; -78% in the assay with RXF 393. In addition, the results for the growth at 0.01 µM in the assay on MDA-MB-231 [2], with M14 and with SF-295 were 101%, 92% and 88%, respectively. In addition, the growth at 0.1 µM with RPMI-8226 amounted to 93%; with ACHN, 98%; in the assay on HCT-116 it was 106%.
Take `Cc1nc2cc(O)c(O)cc2cc1Oc1ccc(NC(=O)Nc2ccc(Cl)c(Cl)c2)cc1`: the growth at 0.3 µM with IGROV-1 [5] amounted to 103%. In addition, the growth at 3 µM with 786-0 worked out at 98%; in the assay on SR [7] it was 28%; with IGROV-1 [8] it was 95%; in the assay on NCI-H322M, 105%. Further, the values for the growth at 0.003 µM in the assay with HCC 2998 and in the assay with OVCAR-4 were 99% and 97%, respectively. The growth at 0.03 µM in the assay with KM12 turned out to be 103%; with SNB-19 it was 103%; in the assay with SR [6] it was 99%; with MDA-MB-435, 91%; in the assay on SK-MEL-2, 113%; with HT-29, 103%. In addition, the growth at 0.03 µM in the assay with IGROV-1 [9] came to 104%. Further, the growth at 30 µM was -20% with HL-60(TB) and 9% with HCT-15.
